From patent US12226412B2, “Heteroaryl-ketone fused azadecalin glucocorticoid receptor modulators” (Corcept Therapeutics, Inc., priority 2012, dated 2025)

Assays:
human recombinant GR = target: T1, human recombinant GR (Homo sapiens, UniProt P04150); experiment: Human glucocorticoid receptor (GR) fluorescence polarisation (FP) binding assay; conditions: human recombinant GR, fluorescence polarisation binding assay; read-out: GR binding
T1 construct: purchased PanVera P2812
T1 sequence (P04150 1-777): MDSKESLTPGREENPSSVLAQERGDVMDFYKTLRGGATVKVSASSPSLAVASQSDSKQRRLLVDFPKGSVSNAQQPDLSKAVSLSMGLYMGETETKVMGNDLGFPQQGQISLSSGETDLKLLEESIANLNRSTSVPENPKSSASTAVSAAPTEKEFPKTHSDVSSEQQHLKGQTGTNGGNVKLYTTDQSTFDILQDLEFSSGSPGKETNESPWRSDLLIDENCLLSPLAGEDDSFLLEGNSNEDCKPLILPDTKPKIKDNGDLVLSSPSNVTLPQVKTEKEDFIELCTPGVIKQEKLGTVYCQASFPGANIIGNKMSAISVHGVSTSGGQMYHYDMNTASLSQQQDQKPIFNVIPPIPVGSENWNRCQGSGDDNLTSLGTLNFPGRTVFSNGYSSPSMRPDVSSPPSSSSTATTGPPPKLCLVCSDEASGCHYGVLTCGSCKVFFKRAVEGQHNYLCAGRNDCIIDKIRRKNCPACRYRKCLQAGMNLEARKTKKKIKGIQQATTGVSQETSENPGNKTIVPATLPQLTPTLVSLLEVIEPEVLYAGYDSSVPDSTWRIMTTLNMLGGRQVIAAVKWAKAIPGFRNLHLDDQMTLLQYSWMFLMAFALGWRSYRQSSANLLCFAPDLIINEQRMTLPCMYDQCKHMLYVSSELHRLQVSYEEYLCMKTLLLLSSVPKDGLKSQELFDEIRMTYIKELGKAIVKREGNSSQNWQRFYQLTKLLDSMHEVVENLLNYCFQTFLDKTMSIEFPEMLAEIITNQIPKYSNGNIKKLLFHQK
Procedure, shortened: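 Competition fluorescence polarisation: 0.5 nM GS Red labelled glucocorticoid and 1 nM recombinant human GR with 8-point half-log compound series, 1% DMSO, 4 h room temperature, potassium phosphate pH 7.4 buffer with molybdate, EDTA, DTT. Affinity derived from the drop in polarisation, normalised to blank wells.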

[1] = system: induction of TAT by dexamethasone in HepG2 cells; experiment: HepG2 tyrosine aminotransferase (TAT) assay; format: cell-based, human; conditions: HepG2 cells, challenge of 100 nM dexamethasone; Ki from IC50 by Cheng and Prusoff equation

Ki (human recombinant GR)	SMILES	Ki [1]
< 0.5 nM	Cc1ccnc(C(=O)[C@]23Cc4cnn(-c5ccc(F)cc5)c4C=C2CCN(S(=O)(=O)c2cc(F)c(F)c(F)c2)C3)c1 [Example 11X, (R)-(1-(4-fluorophenyl)-6-((3,4,5-trifluorophenyl)sulfonyl)-4,4a,5,6,7,8-hexahydro-1H-pyrazolo[3,4-g]isoquinolin-4a-yl)(4-methylpyridin-2-yl)methanone]	< 20 nM
< 0.5 nM	CS(=O)(=O)c1cccc(S(=O)(=O)N2CCC3=Cc4c(cnn4-c4ccc(F)cc4)C[C@]3(C(=O)c3ccccn3)C2)c1 [Example 11Y, (R)-(1-(4-fluorophenyl)-6-((3-(methylsulfonyl)phenyl)sulfonyl)-4,4a,5,6,7,8-hexahydro-1H-pyrazolo[3,4-g]isoquinolin-4a-yl)(pyridin-2-yl)methanone]	20 to 100 nM
< 0.5 nM	O=C(c1nccs1)[C@]12Cc3cnn(-c4ccc(F)cc4)c3C=C1CCN(S(=O)(=O)c1cccc(C(F)(F)F)c1)C2 [Example 12, (R)-(1-(4-fluorophenyl)-6-((3-(trifluoromethyl)phenyl)sulfonyl)-4,4a,5,6,7,8-hexahydro-1H-pyrazolo[3,4-g]isoquinolin-4a-yl)(thiazol-2-yl)methanone]	< 20 nM
< 0.5 nM	Cc1cccc(S(=O)(=O)N2CCC3=Cc4c(cnn4-c4ccc(F)cc4)C[C@]3(C(=O)c3nccs3)C2)c1 [Example 12A, (R)-(1-(4-fluorophenyl)-6-(m-tolylsulfonyl)-4,4a,5,6,7,8-hexahydro-1H-pyrazolo[3,4-g]isoquinolin-4a-yl)(thiazol-2-yl)methanone]	< 20 nM
0.5 to 1 nM	COc1cccc(S(=O)(=O)N2CCC3=Cc4c(cnn4-c4ccc(F)cc4)C[C@]3(C(=O)c3nccs3)C2)c1 [Example 12B, (R)-(1-(4-fluorophenyl)-6-((3-methoxyphenyl)sulfonyl)-4,4a,5,6,7,8-hexahydro-1H-pyrazolo[3,4-g]isoquinolin-4a-yl)(thiazol-2-yl)methanone]	20 to 100 nM
< 0.5 nM	Cc1ccc(S(=O)(=O)N2CCC3=Cc4c(cnn4-c4ccc(F)cc4)C[C@]3(C(=O)c3nccs3)C2)cc1F [Example 12C, (R)-(6-((3-fluoro-4-methylphenyl)sulfonyl)-1-(4-fluorophenyl)-4,4a,5,6,7,8-hexahydro-1H-pyrazolo[3,4-g]isoquinolin-4a-yl)(thiazol-2-yl)methanone]	20 to 100 nM
< 0.5 nM	O=C(c1nccs1)[C@]12Cc3cnn(-c4ccc(F)cc4)c3C=C1CCN(S(=O)(=O)c1ccccc1)C2 [Example 12D, (R)-(1-(4-fluorophenyl)-6-(phenylsulfonyl)-4,4a,5,6,7,8-hexahydro-1H-pyrazolo [3,4-g]isoquinolin-4a-yl)(thiazol-2-yl)methanone]	< 20 nM
< 0.5 nM	O=C(c1nccs1)[C@]12Cc3cnn(-c4ccc(F)cc4)c3C=C1CCN(S(=O)(=O)c1cccc(Cl)c1)C2 [Example 12E, (R)-(6-((3-chlorophenyl)sulfonyl)-1-(4-fluorophenyl)-4,4a,5,6,7,8-hexahydro-1H-pyrazolo[3,4-g]isoquinolin-4a-yl)(thiazol-2-yl)methanone]	20 to 100 nM
< 0.5 nM	Cc1ccc(C(=O)[C@]23Cc4cnn(-c5ccc(F)cc5)c4C=C2CCN(S(=O)(=O)c2cccc(C)c2)C3)nc1 [Example 12F, (R)-(1-(4-fluorophenyl)-6-(m-tolylsulfonyl)-4,4a,5,6,7,8-hexahydro-1H-pyrazolo [3,4-g]isoquinolin-4a-yl)(5-methylpyridin-2-yl)methanone]	< 20 nM
< 0.5 nM	Cc1cccc(S(=O)(=O)N2CCC3=Cc4c(cnn4-c4ccc(F)cc4)C[C@]3(C(=O)c3cc(C)ccn3)C2)c1 [Example 12G, (R)-(1-(4-fluorophenyl)-6-(m-tolylsulfonyl)-4,4a,5,6,7,8-hexahydro-1H-pyrazolo[3,4-g]isoquinolin-4a-yl)(4-methylpyridin-2-yl)methanone]	< 20 nM
< 0.5 nM	Cc1cccc(S(=O)(=O)N2CCC3=Cc4c(cnn4-c4ccc(F)cc4)C[C@]3(C(=O)c3cccc(C)n3)C2)c1 [Example 12H, (R)-(1-(4-fluorophenyl)-6-(m-tolylsulfonyl)-4,4a,5,6,7,8-hexahydro-1H-pyrazolo[3,4-g]isoquinolin-4a-yl)(6-methylpyridin-2-yl)methanone]	< 20 nM
< 0.5 nM	O=C(c1nccs1)[C@]12Cc3cnn(-c4ccc(F)cc4)c3C=C1CCN(S(=O)(=O)c1ccc(F)c(C(F)(F)F)c1)C2 [Example 12I, (R)-(6-((4-fluoro-3-(trifluoromethyl)phenyl)sulfonyl)-1-(4-fluorophenyl)-4,4a,5,6,7,8-hexahydro-1H-pyrazolo[3,4-g]isoquinolin-4a-yl)(thiazol-2-yl)methanone]	20 to 100 nM
< 0.5 nM	O=C(c1nccs1)[C@]12Cc3cnn(-c4ccc(F)cc4)c3C=C1CCN(S(=O)(=O)c1cc(F)c(F)c(F)c1)C2 [Example 12J, (R)-(1-(4-fluorophenyl)-6-((3,4,5-trifluorophenyl)sulfonyl)-4,4a,5,6,7,8-hexahydro-1H-pyrazolo[3,4-g]isoquinolin-4a-yl)(thiazol-2-yl)methanone]	20 to 100 nM
< 0.5 nM	O=C(c1nccs1)[C@]12Cc3cnn(-c4ccc(F)cc4)c3C=C1CCN(S(=O)(=O)c1ccc(C(F)(F)F)c(F)c1)C2 [Example 12K, (R)-(6-((3-fluoro-4-(trifluoromethyl)phenyl)sulfonyl)-1-(4-fluorophenyl)-4,4a,5,6,7,8-hexahydro-1H-pyrazolo[3,4-g]isoquinolin-4a-yl)(thiazol-2-yl)methanone]	20 to 100 nM
< 0.5 nM	Cc1cnc(C(=O)[C@]23Cc4cnn(-c5ccc(F)cc5)c4C=C2CCN(S(=O)(=O)c2cccc(C(F)(F)F)c2)C3)s1 [Example 12L, (R)-(1-(4-fluorophenyl)-6-((3-(trifluoromethyl)phenyl)sulfonyl)-4,4a,5,6,7,8-hexahydro-1H-pyrazolo[3,4-g]isoquinolin-4a-yl)(5-methylthiazol-2-yl)methanone]	< 20 nM
0.5 to 1 nM	Cc1csc(C(=O)[C@]23Cc4cnn(-c5ccc(F)cc5)c4C=C2CCN(S(=O)(=O)c2cccc(C(F)(F)F)c2)C3)n1 [Example 12M, (R)-(1-(4-fluorophenyl)-6-((3-(trifluoromethyl)phenyl)sulfonyl)-4,4a,5,6,7,8-hexahydro-1H-pyrazolo[3,4-g]isoquinolin-4a-yl)(4-methylthiazol-2-yl)methanone]	20 to 100 nM
0.5 to 1 nM	O=C(c1nccs1)[C@]12Cc3cnn(-c4ccc(F)cc4)c3C=C1CCN(S(=O)(=O)c1ccc(Cl)c(Cl)c1)C2 [Example 12N, (R)-(6-((3,4-dichlorophenyl)sulfonyl)-1-(4-fluorophenyl)-4,4a,5,6,7,8-hexahydro-1H-pyrazolo[3,4-g]isoquinolin-4a-yl)(thiazol-2-yl)methanone]	< 20 nM
< 0.5 nM	O=C(c1nccs1)[C@]12Cc3cnn(-c4ccc(F)cc4)c3C=C1CCN(S(=O)(=O)c1ccc(F)c(F)c1)C2 [Example 12P, (R)-(6-((3,4-difluorophenyl)sulfonyl)-1-(4-fluorophenyl)-4,4a,5,6,7,8-hexahydro-1H-pyrazolo[3,4-g]isoquinolin-4a-yl)(thiazol-2-yl)methanone]	20 to 100 nM
> 1 nM	Cc1cnc(C(=O)[C@]23Cc4cnn(-c5ccc(F)cc5)c4C=C2CCN(S(=O)(=O)c2ccc(F)c(F)c2)C3)s1 [Example 12Q, (R)-(6-((3,4-difluorophenyl)sulfonyl)-1-(4-fluorophenyl)-4,4a,5,6,7,8-hexahydro-1H-pyrazolo[3,4-g]isoquinolin-4a-yl)(5-methylthiazol-2-yl)methanone]	< 20 nM
0.5 to 1 nM	Cc1cnc(C(=O)[C@]23Cc4cnn(-c5ccc(F)cc5)c4C=C2CCN(S(=O)(=O)c2ccc(Cl)c(F)c2)C3)s1 [Example 12R, (R)-(6-((4-chloro-3-fluorophenyl)sulfonyl)-1-(4-fluorophenyl)-4,4a,5,6,7,8-hexahydro-1H-pyrazolo[3,4-g]isoquinolin-4a-yl)(5-methylthiazol-2-yl)methanone]	< 20 nM
< 0.5 nM	Cc1cnc(C(=O)[C@]23Cc4cnn(-c5ccc(F)cc5)c4C=C2CCN(S(=O)(=O)c2ccn(C)n2)C3)s1 [Example 12S, (R)-(1-(4-fluorophenyl)-6-((1-methyl-1H-pyrazol-3-yl)sulfonyl)-4,4a,5,6,7,8-hexahydro-1H-pyrazolo[3,4-g]isoquinolin-4a-yl)(5-methylthiazol-2-yl)methanone]	< 20 nM
